# Legend:
# [1] = for Stabilization of chlorine dioxide (in words): excipients of Table 1 in brimonidine composition; for Stabilized Chlorine Dioxide Concentration, 0 Days / Stabilized Chlorine Dioxide Concentration, 7 Days / Stabilized Chlorine Dioxide Concentration, 14 Days: ingredient added at stated ppm to proprietary brimonidine composition
# [2] = Effect of citrate on bimatoprost and Purite stability in the composition of Table 4 at 50° C.; assay type: physicochemical; conditions: compositions D (citric acid 0.014%) vs E, 50° C., 3, 6 and 10 weeks, FIGS. 1 and 2
# Method: Compositions D and E were prepared according to Table 4 by a procedure similar to that described in Example 2. […] The samples were stored at 50° C. and the concentrations of bimatoprost (FIG. 1) and Purite® (FIG. 2) were determined at 3, 6 and 10 weeks.
# [3] = assay type: physicochemical
# Method: A composition, prepared according to Table 5, was entirely manufactured in a single batch vessel and was prepared as follows. The ingredients are added into purified water with mixing in the following order: sodium phosphate dibasic heptahydrate, citric acid monohydrate, sodium chloride, bimatoprost, and Purite®. Each ingredient was allowed to dissolve completely before the next ingredient was added. The pH was then measured and adjusted to 7.3, and purified water was added to bring the composition to final volume.
Effect of citrate on bimatoprost and Purite stability (in words) [2],Storage stability for bimatoprost and Purite (in words) [3],SMILES,Stabilization of chlorine dioxide (in words) [1],"Stabilized Chlorine Dioxide Concentration, 0 Days [1]","Stabilized Chlorine Dioxide Concentration, 7 Days [1]","Stabilized Chlorine Dioxide Concentration, 14 Days [1]"
–,–,O=C(O)CN(CCN(CC(=O)O)CC(=O)O)CC(=O)O [EDTA],do not stabilize,44 ppm,2 ppm,0 ppm
–,–,NCCN [Ethylene diamine],do not stabilize,–,–,–
–,–,O=C([O-])/C(O)=C(\O)C(=O)[O-].[Na+].[Na+] [Sodium Dihydroxyfurmarate],–,37 ppm,13 ppm,0 ppm
–,–,O=C[O-].[Na+] [Sodium Formate],–,42 ppm,40 ppm,36 ppm
–,–,CC(O)C(=O)[O-].[Na+] (stereo not drawn) [Sodium Lactate],–,45 ppm,40 ppm,37 ppm
–,–,O=C([O-])C(=O)[O-].[Na+].[Na+] [Sodium Oxalate],ineffective,39 ppm,38 ppm,35 ppm
–,–,CC(=O)C(=O)[O-].[Na+] [Sodium Pyruvate],ineffective,–,–,–
stabilizes both bimatoprost and Purite®,excellent storage stability,"O=C(O)CC(O)(CC(=O)O)C(=O)O [citrate, citric acid]",–,–,–,–
